Values quoted from earlier work, collected in patent publication US20110208118A1, “COMPOSITIONS AND MEANS FOR TREATING UTERINE LEIOMYOMATA, LEIOMYOMA, MYOMA, UTERINE FIBROIDS, ENDOMETRIOSIS, ADENOMYOSIS AND RELATED DISORDERS BY MIFEPRISTONE” (Bio-Pro Medical Ltd., priority 2007, published 2011).

System: uterine leiomyomata
[1] = oral mifepristone doses of 5 mg-50 mg

For CC#C[C@]1(O)CC[C@H]2[C@@H]3CCC4=CC(=O)CCC4=C3[C@@H](c3ccc(N(C)C)cc3)C[C@@]21C [mifepristone], the “Reduction in volume of leiomyomata, 10 mg vs 20 mg groups” value (10 mg and 20 mg mifepristone daily for 12 weeks, women with large leiomyomata (Yang et al.)) is given as “equivalent in the two groups”, the “regression in the size of uterine leiomyomata” value (5, 25, and 50 mg of mifepristone daily for 12 weeks (Murphy et al.)) is given as “clinically significant regression” and the “uterine and uterine fibroids size” value [1] is given as “reduction in uterine and uterine fibroids size”. The uterine fibroids symptoms [1] was “improvement in uterine fibroids symptoms”.
